What was measured:
Assay in all cases: biochemical
Design in all cases: Kinase selectivity panel of 81 human kinases, ADP-Glo or HTRF, per cent inhibition at 1 uM
PIK3CA = PIK3CA (Homo sapiens, UniProt P42336)
Summary of the method: (§1)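 Kinase-panel selectivity profiling of 81 kinases with compound at 1000 nM.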

PDGFRα = molecular target: T1, PDGFRα (Homo sapiens, UniProt P16234)
T1 construct: gene PDGFRA
Summary of the method: as §1

HGK = molecular target: T2, HGK (Homo sapiens, UniProt O95819)
T2 construct: gene MAP4K4
T2 sequence (O95819 whole entry): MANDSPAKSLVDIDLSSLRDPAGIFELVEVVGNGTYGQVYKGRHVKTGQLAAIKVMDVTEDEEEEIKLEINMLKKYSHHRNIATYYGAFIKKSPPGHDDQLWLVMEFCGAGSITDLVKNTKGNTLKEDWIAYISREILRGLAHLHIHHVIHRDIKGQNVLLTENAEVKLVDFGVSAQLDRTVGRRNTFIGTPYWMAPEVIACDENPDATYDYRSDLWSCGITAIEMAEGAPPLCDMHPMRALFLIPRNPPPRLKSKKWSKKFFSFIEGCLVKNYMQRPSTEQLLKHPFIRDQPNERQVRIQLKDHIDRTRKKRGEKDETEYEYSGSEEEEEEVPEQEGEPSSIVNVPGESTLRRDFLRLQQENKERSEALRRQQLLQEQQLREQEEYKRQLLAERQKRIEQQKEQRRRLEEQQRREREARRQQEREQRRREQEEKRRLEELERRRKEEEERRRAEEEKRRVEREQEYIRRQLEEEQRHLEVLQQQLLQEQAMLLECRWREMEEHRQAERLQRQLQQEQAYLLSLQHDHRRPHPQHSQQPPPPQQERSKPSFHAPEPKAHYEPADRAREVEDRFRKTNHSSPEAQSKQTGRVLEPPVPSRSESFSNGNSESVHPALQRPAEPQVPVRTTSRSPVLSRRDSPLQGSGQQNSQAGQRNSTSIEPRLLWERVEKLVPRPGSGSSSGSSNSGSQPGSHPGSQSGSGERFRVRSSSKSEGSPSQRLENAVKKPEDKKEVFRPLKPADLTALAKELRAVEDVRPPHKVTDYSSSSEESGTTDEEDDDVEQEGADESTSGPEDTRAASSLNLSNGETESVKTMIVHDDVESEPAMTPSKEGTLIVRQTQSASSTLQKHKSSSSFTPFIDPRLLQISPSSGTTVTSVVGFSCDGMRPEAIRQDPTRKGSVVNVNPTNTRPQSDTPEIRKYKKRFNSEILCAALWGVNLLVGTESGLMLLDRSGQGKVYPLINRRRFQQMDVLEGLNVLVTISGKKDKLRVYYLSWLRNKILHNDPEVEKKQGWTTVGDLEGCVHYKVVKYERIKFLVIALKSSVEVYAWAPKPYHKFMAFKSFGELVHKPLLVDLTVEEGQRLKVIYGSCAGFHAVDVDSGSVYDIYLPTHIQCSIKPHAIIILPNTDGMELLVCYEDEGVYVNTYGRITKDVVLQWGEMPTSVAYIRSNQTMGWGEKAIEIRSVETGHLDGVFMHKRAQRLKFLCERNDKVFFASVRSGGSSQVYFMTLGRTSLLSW
Summary of the method: as §1

DAPK1 = DAPK1 (Homo sapiens, UniProt P53355)
Summary of the method: as §1

TGFβR2 = molecular target: T3, TGFβR2 (Homo sapiens, UniProt P37173)
T3 construct: gene TGFBR2
Summary of the method: as §1

AKT1 = AKT1 (Homo sapiens, UniProt P31749)
Summary of the method: as §1

AurB = molecular target: T4, AurB (Homo sapiens, UniProt Q96GD4)
T4 construct: gene AURKB
T4 sequence (Q96GD4 whole entry): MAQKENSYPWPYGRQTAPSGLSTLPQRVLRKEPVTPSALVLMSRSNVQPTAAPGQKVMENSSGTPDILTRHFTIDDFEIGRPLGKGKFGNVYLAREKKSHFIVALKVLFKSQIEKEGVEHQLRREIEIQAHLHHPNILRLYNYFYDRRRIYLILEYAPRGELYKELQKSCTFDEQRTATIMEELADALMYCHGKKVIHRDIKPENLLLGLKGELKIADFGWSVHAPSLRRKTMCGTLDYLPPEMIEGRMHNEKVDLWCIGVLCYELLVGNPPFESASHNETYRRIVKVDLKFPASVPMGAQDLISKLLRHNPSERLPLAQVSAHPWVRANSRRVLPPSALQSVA
Summary of the method: as §1

CHK2 = molecular target: T5, CHK2 (Homo sapiens, UniProt O96017)
T5 construct: gene CHEK2
T5 sequence (O96017 whole entry): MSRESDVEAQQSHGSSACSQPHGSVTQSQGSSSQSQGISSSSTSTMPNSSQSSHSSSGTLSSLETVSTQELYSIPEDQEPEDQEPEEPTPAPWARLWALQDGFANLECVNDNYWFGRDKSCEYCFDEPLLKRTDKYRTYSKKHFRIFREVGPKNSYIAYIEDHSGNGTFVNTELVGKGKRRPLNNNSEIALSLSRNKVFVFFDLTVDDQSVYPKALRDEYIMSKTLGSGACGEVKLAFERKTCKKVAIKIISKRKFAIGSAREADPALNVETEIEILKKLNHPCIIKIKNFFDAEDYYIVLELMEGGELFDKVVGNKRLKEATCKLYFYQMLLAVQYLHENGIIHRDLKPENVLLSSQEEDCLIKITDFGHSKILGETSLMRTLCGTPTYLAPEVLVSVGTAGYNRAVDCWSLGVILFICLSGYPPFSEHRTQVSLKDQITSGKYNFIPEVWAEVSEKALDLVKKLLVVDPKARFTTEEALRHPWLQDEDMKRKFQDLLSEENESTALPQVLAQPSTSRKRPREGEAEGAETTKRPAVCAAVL
Summary of the method: as §1

p70S6K = molecular target: T6, p70S6K (Homo sapiens, UniProt P23443)
T6 construct: gene RPS6KB1
T6 sequence (P23443 whole entry): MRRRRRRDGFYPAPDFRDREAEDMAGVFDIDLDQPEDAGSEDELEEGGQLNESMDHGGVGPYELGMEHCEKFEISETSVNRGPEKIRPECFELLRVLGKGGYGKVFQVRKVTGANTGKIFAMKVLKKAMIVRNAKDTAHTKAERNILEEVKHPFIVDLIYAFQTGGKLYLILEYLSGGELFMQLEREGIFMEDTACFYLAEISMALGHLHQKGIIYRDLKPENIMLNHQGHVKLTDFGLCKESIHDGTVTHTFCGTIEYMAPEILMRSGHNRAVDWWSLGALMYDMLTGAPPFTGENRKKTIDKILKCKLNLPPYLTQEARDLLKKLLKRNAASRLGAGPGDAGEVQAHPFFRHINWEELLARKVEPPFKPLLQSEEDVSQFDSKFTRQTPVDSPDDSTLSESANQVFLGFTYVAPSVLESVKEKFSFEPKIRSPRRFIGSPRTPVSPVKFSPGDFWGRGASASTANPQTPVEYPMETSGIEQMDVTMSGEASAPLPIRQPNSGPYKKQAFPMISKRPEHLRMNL
Summary of the method: as §1

ABL1 = ABL1 (Homo sapiens, UniProt P00519)
Chain of ABL1 (P00519 whole entry): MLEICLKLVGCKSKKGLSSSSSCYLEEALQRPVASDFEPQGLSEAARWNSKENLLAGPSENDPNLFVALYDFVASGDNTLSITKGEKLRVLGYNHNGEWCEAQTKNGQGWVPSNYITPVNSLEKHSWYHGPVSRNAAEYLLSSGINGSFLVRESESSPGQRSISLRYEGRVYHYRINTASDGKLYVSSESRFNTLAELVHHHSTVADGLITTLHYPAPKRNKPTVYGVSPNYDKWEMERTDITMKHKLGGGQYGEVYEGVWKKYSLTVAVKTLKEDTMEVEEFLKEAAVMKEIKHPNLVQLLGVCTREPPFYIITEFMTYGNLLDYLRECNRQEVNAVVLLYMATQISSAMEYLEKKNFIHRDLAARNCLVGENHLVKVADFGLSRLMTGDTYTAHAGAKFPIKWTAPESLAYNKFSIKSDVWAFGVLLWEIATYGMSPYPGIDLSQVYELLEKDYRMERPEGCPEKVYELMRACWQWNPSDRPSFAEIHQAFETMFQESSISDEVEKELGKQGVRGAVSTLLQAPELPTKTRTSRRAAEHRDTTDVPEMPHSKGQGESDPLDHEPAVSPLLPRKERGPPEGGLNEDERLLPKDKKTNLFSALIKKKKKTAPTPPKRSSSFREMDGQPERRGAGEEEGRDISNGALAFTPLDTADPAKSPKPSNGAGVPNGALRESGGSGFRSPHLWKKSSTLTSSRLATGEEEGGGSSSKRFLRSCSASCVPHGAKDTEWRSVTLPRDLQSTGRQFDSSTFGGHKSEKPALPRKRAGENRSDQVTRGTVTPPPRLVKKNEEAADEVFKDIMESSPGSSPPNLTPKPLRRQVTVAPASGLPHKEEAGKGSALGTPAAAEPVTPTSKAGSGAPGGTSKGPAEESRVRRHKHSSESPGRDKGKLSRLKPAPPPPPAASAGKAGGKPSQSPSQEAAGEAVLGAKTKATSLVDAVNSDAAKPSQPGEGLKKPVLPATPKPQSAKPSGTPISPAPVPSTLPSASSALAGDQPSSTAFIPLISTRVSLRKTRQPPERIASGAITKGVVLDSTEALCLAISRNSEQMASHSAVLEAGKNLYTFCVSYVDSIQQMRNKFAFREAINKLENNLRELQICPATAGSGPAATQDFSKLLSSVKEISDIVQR
Summary of the method: as §1

QIK = molecular target: T7, QIK (Homo sapiens, UniProt Q9H0K1)
T7 construct: gene SIK2
T7 sequence (Q9H0K1 whole entry): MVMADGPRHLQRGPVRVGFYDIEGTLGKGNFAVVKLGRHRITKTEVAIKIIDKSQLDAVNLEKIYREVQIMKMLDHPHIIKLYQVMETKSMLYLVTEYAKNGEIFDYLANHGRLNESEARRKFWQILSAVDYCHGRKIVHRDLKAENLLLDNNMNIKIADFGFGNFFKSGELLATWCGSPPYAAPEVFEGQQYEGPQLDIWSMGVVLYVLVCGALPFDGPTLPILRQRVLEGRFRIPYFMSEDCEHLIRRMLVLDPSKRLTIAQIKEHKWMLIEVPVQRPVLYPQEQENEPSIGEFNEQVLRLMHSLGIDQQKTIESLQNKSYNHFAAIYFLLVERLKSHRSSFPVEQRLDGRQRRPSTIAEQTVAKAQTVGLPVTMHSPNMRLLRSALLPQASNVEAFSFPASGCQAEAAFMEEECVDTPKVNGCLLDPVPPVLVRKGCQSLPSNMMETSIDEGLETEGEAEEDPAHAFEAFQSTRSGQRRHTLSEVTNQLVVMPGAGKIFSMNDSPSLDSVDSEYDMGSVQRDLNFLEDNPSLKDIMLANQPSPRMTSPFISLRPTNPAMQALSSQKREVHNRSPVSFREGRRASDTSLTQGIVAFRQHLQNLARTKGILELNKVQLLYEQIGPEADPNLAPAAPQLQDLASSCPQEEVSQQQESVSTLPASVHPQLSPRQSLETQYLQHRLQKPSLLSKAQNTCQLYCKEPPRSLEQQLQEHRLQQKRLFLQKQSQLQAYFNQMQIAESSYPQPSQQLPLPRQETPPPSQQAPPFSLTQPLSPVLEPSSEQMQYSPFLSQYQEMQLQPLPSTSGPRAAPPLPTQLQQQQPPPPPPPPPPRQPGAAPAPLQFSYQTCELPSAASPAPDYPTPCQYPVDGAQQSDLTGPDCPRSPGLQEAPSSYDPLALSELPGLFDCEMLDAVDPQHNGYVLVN
Summary of the method: as §1

NEK1 = NEK1 (Homo sapiens, UniProt Q96PY6)
Summary of the method: as §1

CDK18/CycY = CDK18/CycY (Homo sapiens, UniProt Q07002)
Summary of the method: as §1

MLK1 = molecular target: T8, MLK1 (Homo sapiens, UniProt P80192)
T8 construct: gene MAP3K9
Summary of the method: as §1

inhibition at 1 µM (PIK3CA; replicate Data1): 37.1%
inhibition at 1 µM (PIK3CA; replicate Data2): 35.8%
inhibition at 1 µM (PDGFRα; replicate Data1): -2.74%
inhibition at 1 µM (PDGFRα; replicate Data2): 4.62%
inhibition at 1 µM (HGK; replicate Data1): 4.09%
inhibition at 1 µM (HGK; replicate Data2): 11.5%
inhibition at 1 µM (DAPK1; replicate Data1): 9.17%
inhibition at 1 µM (DAPK1; replicate Data2): -5.62%
inhibition at 1 µM (TGFβR2; replicate Data1): 7.99%
inhibition at 1 µM (TGFβR2; replicate Data2): 3.92%
inhibition at 1 µM (AKT1; replicate Data1): -1.95%
inhibition at 1 µM (AKT1; replicate Data2): 6.27%
inhibition at 1 µM (AurB; replicate Data1): 8.89%
inhibition at 1 µM (AurB; replicate Data2): 13.4%
inhibition at 1 µM (CHK2; replicate Data1): 15.8%
inhibition at 1 µM (CHK2; replicate Data2): 1.85%
inhibition at 1 µM (p70S6K; replicate Data1): -3.27%
inhibition at 1 µM (p70S6K; replicate Data2): -3.18%
inhibition at 1 µM (ABL1; replicate Data1): 6.71%
inhibition at 1 µM (ABL1; replicate Data2): 9.11%
inhibition at 1 µM (QIK; replicate Data1): 9.18%
inhibition at 1 µM (QIK; replicate Data2): 2.94%
inhibition at 1 µM (NEK1; replicate Data1): 4.63%
inhibition at 1 µM (NEK1; replicate Data2): 13.4%
inhibition at 1 µM (CDK18/CycY; replicate Data1): 4.89%
inhibition at 1 µM (CDK18/CycY; replicate Data2): -0.64%
inhibition at 1 µM (MLK1; replicate Data1): 21.2%
inhibition at 1 µM (MLK1; replicate Data2): 32.7%
Compound: Nc1cn2cc(-c3cnc4c(c3)N(C(=O)OC3CCCCC3)CCO4)ccc2n1 [Zharp1-163]

Reference: publication PMC12394658, “Discovery of Zharp1-163 as a dual inhibitor of ferroptosis and necroptosis for the treatment of inflammatory disorders and kidney injury” (Cell Death Discovery, 2025)
